Experiment [1] can be described thus: cells. The settings on record: Homo sapiens, OSC19.
Description: Growth inhibition of human OSC19 cells
Experiment [2] can be described thus: cells. The settings on record: Homo sapiens.
Description: Growth inhibition of human 686LN cells
A short description of experiment [3]: Selectivity index, ratio of IC50 for IFNgamma-induced STAT1 pathway in human Cal33 cells to IC50 for IL-6-induced STAT3 pathway in human Cal33 cells. Format: cell-based. The settings on record: CAL-33.
The nature of experiment [4]: cells. The following applies: Homo sapiens, CAL-33.
Description: Growth inhibition of human CAL33 cells
The target of experiment [5] is Tyrosine-protein kinase JAK2 (Homo sapiens) (UniProt O60674). The experiment is described as follows: Inhibition of JAK2 phosphorylation in human Cal33 cells by Western blot analysis. It is filed as cell-based. The settings on record: CAL-33. A general note: A western blot detects proteins with antibodies after separation by electrophoresis.
For the next experiment, the system named is FaDu. Put plainly: cells. The settings on record: Homo sapiens.
Experiment [6] addresses Tyrosine-protein kinase JAK1 (Homo sapiens) (UniProt P23458). The experiment is described as follows: Inhibition of JAK1 phosphorylation in human Cal33 cells by Western blot analysis. The following applies: CAL-33. Format: cell-based.
Experiment [7] deals with T1, Signal transducer and activator of transcription 1-alpha/beta (Homo sapiens) (UniProt P42224).
T1 sequence (whole entry): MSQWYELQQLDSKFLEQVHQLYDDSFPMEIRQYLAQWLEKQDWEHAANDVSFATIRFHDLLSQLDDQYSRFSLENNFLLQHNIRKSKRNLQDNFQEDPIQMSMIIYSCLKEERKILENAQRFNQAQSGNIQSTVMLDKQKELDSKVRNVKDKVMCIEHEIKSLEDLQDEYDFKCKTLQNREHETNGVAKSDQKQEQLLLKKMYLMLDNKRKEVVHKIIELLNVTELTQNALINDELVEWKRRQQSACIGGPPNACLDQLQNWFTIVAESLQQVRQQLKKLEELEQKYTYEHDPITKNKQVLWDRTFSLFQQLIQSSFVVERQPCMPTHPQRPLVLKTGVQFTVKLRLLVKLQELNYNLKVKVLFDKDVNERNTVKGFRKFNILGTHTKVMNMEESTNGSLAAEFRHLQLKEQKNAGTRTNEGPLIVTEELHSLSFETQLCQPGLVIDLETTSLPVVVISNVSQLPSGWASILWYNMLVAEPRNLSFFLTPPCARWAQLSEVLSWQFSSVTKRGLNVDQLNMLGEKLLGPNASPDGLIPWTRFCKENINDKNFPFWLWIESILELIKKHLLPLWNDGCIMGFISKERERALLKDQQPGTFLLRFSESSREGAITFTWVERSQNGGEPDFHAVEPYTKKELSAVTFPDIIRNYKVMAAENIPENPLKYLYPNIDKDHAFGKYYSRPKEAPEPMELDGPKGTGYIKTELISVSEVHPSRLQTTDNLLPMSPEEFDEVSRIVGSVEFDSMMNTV
Put plainly: Inhibition of IFNgamma-induced STAT1 pathway in human Cal33 cells at 50 uM. Format: cell-based. The settings on record: CAL-33.

pIC50: −log10 of the molar value. Activity calls are given as the source filed them. No cut-off for these calls is given here.

Sequence of Tyrosine-protein kinase JAK2 (Homo sapiens) (O60674 whole entry): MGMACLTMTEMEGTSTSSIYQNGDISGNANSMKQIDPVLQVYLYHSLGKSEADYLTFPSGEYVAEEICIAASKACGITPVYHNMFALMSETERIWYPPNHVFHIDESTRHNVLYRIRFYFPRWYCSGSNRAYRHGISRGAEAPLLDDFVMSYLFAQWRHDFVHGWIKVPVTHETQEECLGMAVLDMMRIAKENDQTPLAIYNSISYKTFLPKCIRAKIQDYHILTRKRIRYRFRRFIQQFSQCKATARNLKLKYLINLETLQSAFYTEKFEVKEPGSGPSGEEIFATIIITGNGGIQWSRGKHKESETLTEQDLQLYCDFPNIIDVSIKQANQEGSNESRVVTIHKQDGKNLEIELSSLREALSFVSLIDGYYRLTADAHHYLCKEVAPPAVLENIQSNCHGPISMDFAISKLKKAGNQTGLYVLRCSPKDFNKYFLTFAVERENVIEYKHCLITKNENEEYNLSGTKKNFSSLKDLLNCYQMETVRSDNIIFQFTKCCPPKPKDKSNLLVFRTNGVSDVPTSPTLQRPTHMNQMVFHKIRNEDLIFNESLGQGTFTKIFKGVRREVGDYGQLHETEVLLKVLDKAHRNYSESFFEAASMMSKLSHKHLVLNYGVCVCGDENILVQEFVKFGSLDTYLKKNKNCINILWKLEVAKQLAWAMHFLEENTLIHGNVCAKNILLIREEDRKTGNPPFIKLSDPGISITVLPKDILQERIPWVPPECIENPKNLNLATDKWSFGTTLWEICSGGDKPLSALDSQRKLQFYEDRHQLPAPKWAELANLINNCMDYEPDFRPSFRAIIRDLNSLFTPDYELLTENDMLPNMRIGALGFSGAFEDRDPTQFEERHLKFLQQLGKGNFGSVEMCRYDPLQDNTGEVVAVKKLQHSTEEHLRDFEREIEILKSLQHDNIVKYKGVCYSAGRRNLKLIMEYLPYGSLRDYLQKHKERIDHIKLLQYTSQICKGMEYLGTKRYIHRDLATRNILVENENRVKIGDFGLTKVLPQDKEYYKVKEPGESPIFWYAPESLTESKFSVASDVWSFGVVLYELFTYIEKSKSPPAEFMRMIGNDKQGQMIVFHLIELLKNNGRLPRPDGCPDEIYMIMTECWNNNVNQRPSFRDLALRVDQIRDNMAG
Sequence of Tyrosine-protein kinase JAK1 (Homo sapiens) (P23458 whole entry): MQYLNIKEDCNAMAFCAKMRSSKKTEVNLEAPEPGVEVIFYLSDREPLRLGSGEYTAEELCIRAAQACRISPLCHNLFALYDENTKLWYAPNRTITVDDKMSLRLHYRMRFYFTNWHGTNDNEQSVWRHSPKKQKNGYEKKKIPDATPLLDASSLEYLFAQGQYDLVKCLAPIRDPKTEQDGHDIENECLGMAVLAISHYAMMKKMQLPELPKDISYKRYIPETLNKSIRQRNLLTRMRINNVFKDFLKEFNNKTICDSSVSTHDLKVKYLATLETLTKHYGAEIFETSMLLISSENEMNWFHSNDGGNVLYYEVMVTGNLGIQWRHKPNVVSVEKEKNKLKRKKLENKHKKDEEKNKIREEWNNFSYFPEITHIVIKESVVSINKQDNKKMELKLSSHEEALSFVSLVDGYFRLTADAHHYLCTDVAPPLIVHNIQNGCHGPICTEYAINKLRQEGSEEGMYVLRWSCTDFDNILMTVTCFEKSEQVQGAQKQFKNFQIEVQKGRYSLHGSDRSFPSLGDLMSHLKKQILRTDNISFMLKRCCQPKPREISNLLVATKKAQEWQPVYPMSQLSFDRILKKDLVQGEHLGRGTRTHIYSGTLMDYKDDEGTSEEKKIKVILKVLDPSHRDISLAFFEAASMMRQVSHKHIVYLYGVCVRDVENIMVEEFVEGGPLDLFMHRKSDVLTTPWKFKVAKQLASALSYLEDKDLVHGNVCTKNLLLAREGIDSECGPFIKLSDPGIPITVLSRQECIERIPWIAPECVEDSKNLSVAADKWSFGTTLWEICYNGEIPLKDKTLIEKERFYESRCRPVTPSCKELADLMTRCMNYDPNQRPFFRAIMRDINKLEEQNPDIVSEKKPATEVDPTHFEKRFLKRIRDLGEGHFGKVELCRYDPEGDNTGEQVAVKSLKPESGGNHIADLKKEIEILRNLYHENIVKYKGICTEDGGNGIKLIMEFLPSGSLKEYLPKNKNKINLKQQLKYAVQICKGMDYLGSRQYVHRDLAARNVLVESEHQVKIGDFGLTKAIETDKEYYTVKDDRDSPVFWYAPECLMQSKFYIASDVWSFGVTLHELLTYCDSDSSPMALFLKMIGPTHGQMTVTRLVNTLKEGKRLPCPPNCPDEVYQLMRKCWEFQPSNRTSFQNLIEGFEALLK
Description for FaDu: Growth inhibition of human FADU cells

Take `CCOc1ccc2nc(Nc3nc(=O)cc(-c4ccccc4)[nH]3)nc(C)c2c1`: the pIC50 – broadly, the IC50 on a negative log10 scale, so that one unit is a factor of ten – in “cells [1]” is 4.72; in “cells [2]”, 4.42.
For the compound `Cc1nc(Nc2nc(=O)cc(-c3ccccc3)[nH]2)nc2cc3c(cc12)OCO3`, in experiment [3], the Ratio IC50 was over 3.
In the case of `CCOc1ccc2nc(NC3=NC(C)=CC(C)(C)N3)nc(C)c2c1`, the negative logarithm of the IC50 (pIC50) in “cells [4]” is 4.53; in the experiment “cells [1]”, 4.77; in the experiment “cells [2]”, 4.43; in the experiment on FaDu, 4.73. For the same compound, the inhibition result in experiment [5], in experiment [6] and in experiment [7] was “inactive” each time.
In the case of `CC1=CC(C)(C)N=C(Nc2nc(C)c3cc(C)ccc3n2)N1`, the pIC50 was 4.89 in the experiment “cells [1]” and 4.31 in the experiment “cells [2]”.
For `COc1ccc2nc(Nc3nc(=O)cc(C)[nH]3)nc(C)c2c1`, the Ratio IC50 in experiment [3] was over 1.
Take `CC1=CC(C)(C)N=C(Nc2nc(C)c3cc(C)cc(C)c3n2)N1`: the pIC50 in “cells [4]” is 5.92; in the experiment “cells [1]”, 5.49; in the experiment “cells [2]”, 5.62; with FaDu, 5.72.
With `Cc1cc2nc(Nc3nc(=O)c(C)c(C)[nH]3)nc(C)c2cc1C`, the Ratio IC50 in experiment [3] was over 4.
For `Cc1cc(C)c2nc(Nc3nc(C)c(C)c(O)n3)nc(C)c2c1`, the Ratio IC50 in experiment [3] was over 7.

For the origin of these results see ChEMBL document CHEMBL3352017, “2-Guanidinoquinazolines as new inhibitors of the STAT3 pathway” (Bioorg Med Chem Lett, 2014).
